Converted amounts (≈) assume the structure as drawn.
How the values were obtained:
Test in all cases: Antifungal susceptibility testing (minimum inhibitory concentration), soyabean casein digest broth
Format in all cases: cell-based
A. niger = conditions: Aspergillus niger; end points after 48 hours, visually / spectrophotometer; NI till x = no inhibition up to x; read-out: Activity against organisms In μg/ml, A. niger (minimum inhibitory concentration)
Experimental: (§1) In vitro evaluation of antifungal activity can be performed by determining the minimum inhibitory concentration. Anti-fungal susceptibility testing of these anti-fungal compounds was done by conventional method using soyabean casein digest broth. Known anti-fungal agents like Fluconazole and amphotericin-B were used as positive control. End points were determined after 48 hours visually and by using Spectrophotometer wherever necessary. Different dilutions were tried and the set of experiments.

F. proliferatum = conditions: Fusarium proliferatum; end points after 48 hours, visually / spectrophotometer; NI till x = no inhibition up to x; read-out: Activity against organisms In μg/ml, F. proliferatum (minimum inhibitory concentration)
Experimental: as §1

C. albicans = conditions: Candida albicans; end points after 48 hours, visually / spectrophotometer; NI till x = no inhibition up to x; read-out: Activity against organisms In μg/ml, C. albicans (minimum inhibitory concentration)
Experimental: as §1

Row | SMILES | MIC (A. niger) | MIC (F. proliferatum) | MIC (C. albicans)
1 | O=C1OC(COC(=O)c2ccccc2)C=C1c1ccc(Cl)c(Cl)c1 (stereo not drawn) [1AA, 3,4-dichlorophenyl-5-benzoyloxymethyl-2H,5H-furan-2-one] | 2 µg/mL (≈ 5.51 µM) | 1 µg/mL (≈ 2.75 µM) | 4 µg/mL (≈ 11 µM)
2 | O=C1OC(COC(=O)c2ccccc2)C=C1c1cccc(Cl)c1 (stereo not drawn) [1AB, 3-chlorophenyl-5-benzoyloxymethyl-2H,5H-furan-2-one] | 2 µg/mL (≈ 6.08 µM) | 0.5 µg/mL (≈ 1.52 µM) | 2 µg/mL (≈ 6.08 µM)
3 | O=C1OC(COC(=O)c2ccccc2)C=C1c1cccc(F)c1 (stereo not drawn) [1AD, 3-fluorophenyl-5-benzoyloxymethyl-2H,5H-furan-2-one] | 1 to 2 µg/mL (≈ 3.2 to 6.4 µM) | 1 to 2 µg/mL (≈ 3.2 to 6.4 µM) | 1 to 2 µg/mL (≈ 3.2 to 6.4 µM)
4 | COc1ccc(C2=CC(COC(=O)c3ccccc3)OC2=O)cc1Br (stereo not drawn) [1AE, 3-bromo-4-methoxyphenyl-5-benzoyloxymethyl-2H,5H-furan-2-one] | > 2 µg/mL | > 2 µg/mL | > 2 µg/mL
5 | COc1ccc(C2=CC(COC(C)=O)OC2=O)cc1Br (stereo not drawn) [1BE, 3-bromo-4-methoxyphenyl-5-acetoxymethyl-2H,5H-furan-2-one] | 4 to 8 µg/mL (≈ 11.7 to 23.4 µM) | 8 to 16 µg/mL (≈ 23.4 to 46.9 µM) | 2 to 4 µg/mL (≈ 5.86 to 11.7 µM)
6 | O=C1OC(COC(=O)c2cccs2)C=C1c1ccc(Cl)c(Cl)c1 (stereo not drawn) [1DA, 4-(3,4-dichlorophenyl)-5-oxo-2,5-dihydrofuran-2-ylmethyl thiophene-2-carboxylate] | 1 µg/mL (≈ 2.71 µM) | 2 µg/mL (≈ 5.42 µM) | 2 µg/mL (≈ 5.42 µM)
7 | O=C1OC(COC(=O)c2cccs2)C=C1c1cccc(Cl)c1 (stereo not drawn) [1DB, 4-(3-chlorophenyl)-5-oxo-2,5-dihydrofuran-2-ylmethyl thiophene-2-carboxylate] | 4 µg/mL (≈ 11.9 µM) | 1 µg/mL (≈ 2.99 µM) | 2 µg/mL (≈ 5.97 µM)
8 | COc1ccc(C2=CC(COC(=O)c3cccs3)OC2=O)cc1Br (stereo not drawn) [1DE, 4-(3-bromo-4-methoxyphenyl)-5-oxo-2,5-dihydrofuran-2-ylmethyl thiophene-2-carboxylate] | > 2 µg/mL | > 2 µg/mL | > 2 µg/mL
9 | O=C1OC(COC(=O)c2ccsc2)C=C1c1ccc(Cl)c(Cl)c1 (stereo not drawn) [1EA, 4-(3,4-dichlorophenyl)-5-oxo-2,5-dihydrofuran-2-ylmethyl thiophene-3-carboxylate] | 1 µg/mL (≈ 2.71 µM) | 2 µg/mL (≈ 5.42 µM) | 2 µg/mL (≈ 5.42 µM)
10 | O=C1OC(COC(=O)c2ccsc2)C=C1c1cccc(Cl)c1 (stereo not drawn) [1EB, 4-(3-chlorophenyl)-5-oxo-2,5-dihydrofuran-2-ylmethyl thiophene-3-carboxylate] | 4 µg/mL (≈ 11.9 µM) | 2 µg/mL (≈ 5.97 µM) | 4 µg/mL (≈ 11.9 µM)
11 | COc1ccc(C2=CC(COC(=O)c3ccsc3)OC2=O)cc1Br (stereo not drawn) [1EE, 4-(3-bromo-4-methoxyphenyl)-5-oxo-2,5-dihydrofuran-2-ylmethyl thiophene-3-carboxylate] | > 2 µg/mL | > 2 µg/mL | > 2 µg/mL
12 | O=C1OC(COC(=O)c2cc(Br)c(Br)s2)C=C1c1ccc(Cl)c(Cl)c1 (stereo not drawn) [1FA, 4-(3,4-dichlorophenyl)-5-oxo-2,5-dihydrofuran-2-ylmethyl 4,5-dibromothiophene-2-carboxylate] | > 4 µg/mL | > 4 µg/mL | > 4 µg/mL
13 | O=C1OC(COC(=O)c2cc(Br)c(Br)s2)C=C1c1cccc(Cl)c1 (stereo not drawn) [1FB, 4-(3-chlorophenyl)-5-oxo-2,5-dihydrofuran-2-ylmethyl 4,5-dibromothiophene-2-carboxylate] | 2 to 4 µg/mL (≈ 4.06 to 8.12 µM) | 1 to 2 µg/mL (≈ 2.03 to 4.06 µM) | 1 to 2 µg/mL (≈ 2.03 to 4.06 µM)
14 | O=C(CCCl)OCC1C=C(c2ccc(Cl)c(Cl)c2)C(=O)O1 (stereo not drawn) [1GA, 4-(3,4-dichlorophenyl)-5-oxo-2,5-dihydrofuran-2-ylmethyl 3-chloropropionate] | 2 µg/mL (≈ 5.72 µM) | 2 µg/mL (≈ 5.72 µM) | 4 µg/mL (≈ 11.4 µM)
15 | COc1ccc(C2=CC(COC(=O)CCCl)OC2=O)cc1Br (stereo not drawn) [1GE, 4-(3-bromo-4-methoxyphenyl)-5-oxo-2,5-dihydrofuran-2-ylmethyl 3-chloropropionate] | 4 to 8 µg/mL (≈ 10.3 to 20.5 µM) | 8 to 16 µg/mL (≈ 20.5 to 41.1 µM) | 4 to 8 µg/mL (≈ 10.3 to 20.5 µM)
16 | O=C(CCCCl)OCC1C=C(c2ccc(Cl)c(Cl)c2)C(=O)O1 (stereo not drawn) [1HA, 4-(3,4-dichlorophenyl)-5-oxo-2,5-dihydrofuran-2-ylmethyl 4-chlorobutyrate] | 1 to 2 µg/mL (≈ 2.75 to 5.5 µM) | 1 to 2 µg/mL (≈ 2.75 to 5.5 µM) | 1 to 2 µg/mL (≈ 2.75 to 5.5 µM)

Further lines, results first:

Row | MIC (A. niger) | MIC (F. proliferatum) | MIC (C. albicans) | SMILES
17 | 4 µg/mL (≈ 10.7 µM) | 0.5 µg/mL (≈ 1.34 µM) | 2 µg/mL (≈ 5.36 µM) | O=C1OC(COC(=O)c2ccccc2)C=C1c1cccc(Br)c1 (stereo not drawn) [1AC, 3-bromophenyl-5-benzoyloxymethyl-2H,5H-furan-2-one]
18 | 4 µg/mL (≈ 12.9 µM) | 2 µg/mL (≈ 6.43 µM) | 2 µg/mL (≈ 6.43 µM) | CC(=O)OCC1C=C(c2cccc(Br)c2)C(=O)O1 (stereo not drawn) [1BC, 3-bromophenyl-5-acetxymethyl-2H,5H-furan-2-one]
19 | 1 to 2 µg/mL (≈ 4 to 7.99 µM) | 1 to 2 µg/mL (≈ 4 to 7.99 µM) | 1 to 2 µg/mL (≈ 4 to 7.99 µM) | CC(=O)OCC1C=C(c2cccc(F)c2)C(=O)O1 (stereo not drawn) [1BD, 3-fluorophenyl-5-acetxymethyl-2H,5H-furan-2-one]
20 | 1 µg/mL (≈ 3.06 µM) | 1 µg/mL (≈ 3.06 µM) | 2 µg/mL (≈ 6.11 µM) | C=CCC(=O)OCC1C=C(c2ccc(Cl)c(Cl)c2)C(=O)O1 (stereo not drawn) [1CA, 3,4-dichlorophenyl-5-allyloyloxymethyl-2H,5H-furan-2-one]
21 | 8 µg/mL (≈ 27.3 µM) | 2 µg/mL (≈ 6.83 µM) | 4 µg/mL (≈ 13.7 µM) | C=CCC(=O)OCC1C=C(c2cccc(Cl)c2)C(=O)O1 (stereo not drawn) [1CB, 3-chlorophenyl-5-allyloyloxymethyl-2H,5H-furan-2-one]
22 | 8 µg/mL (≈ 23.7 µM) | 2 µg/mL (≈ 5.93 µM) | 4 µg/mL (≈ 11.9 µM) | C=CCC(=O)OCC1C=C(c2cccc(Br)c2)C(=O)O1 (stereo not drawn) [1CC, 3-bromophenyl-5-allyloyloxymethyl-2H,5H-furan-2-one]
23 | > 8 µg/mL | > 8 µg/mL | 2 to 4 µg/mL (≈ 5.45 to 10.9 µM) | C=CCC(=O)OCC1C=C(c2ccc(OC)c(Br)c2)C(=O)O1 (stereo not drawn) [1CE, 3-bromo-4-methoxyphenyl-5-allyloyloxymethyl-2H,5H-furan-2-one]
24 | 8 µg/mL (≈ 21.1 µM) | 2 µg/mL (≈ 5.27 µM) | 2 µg/mL (≈ 5.27 µM) | O=C1OC(COC(=O)c2cccs2)C=C1c1cccc(Br)c1 (stereo not drawn) [1DC, 4-(3-bromophenyl)-5-oxo-2,5-dihydrofuran-2-ylmethyl thiophene-2-carboxylate]
25 | 2 µg/mL (≈ 5.27 µM) | 1 µg/mL (≈ 2.64 µM) | 2 µg/mL (≈ 5.27 µM) | O=C1OC(COC(=O)c2ccsc2)C=C1c1cccc(Br)c1 (stereo not drawn) [1EC, 4-(3-bromophenyl)-5-oxo-2,5-dihydrofuran-2-ylmethyl thiophene-3-carboxylate]
26 | 2 to 4 µg/mL (≈ 3.72 to 7.45 µM) | 1 to 2 µg/mL (≈ 1.86 to 3.72 µM) | 1 to 2 µg/mL (≈ 1.86 to 3.72 µM) | O=C1OC(COC(=O)c2cc(Br)c(Br)s2)C=C1c1cccc(Br)c1 (stereo not drawn) [1FC, 4-(3-bromophenyl)-5-oxo-2,5-dihydrofuran-2-ylmethyl 4,5-dibromothiophene-2-carboxylate]
27 | 2 µg/mL (≈ 6.35 µM) | 4 µg/mL (≈ 12.7 µM) | 2 µg/mL (≈ 6.35 µM) | O=C(CCCl)OCC1C=C(c2cccc(Cl)c2)C(=O)O1 (stereo not drawn) [1GB, 4-(3-chlorophenyl)-5-oxo-2,5-dihydrofuran-2-ylmethyl 3-chloropropionate]
28 | 4 µg/mL (≈ 11.1 µM) | 2 µg/mL (≈ 5.56 µM) | 2 µg/mL (≈ 5.56 µM) | O=C(CCCl)OCC1C=C(c2cccc(Br)c2)C(=O)O1 (stereo not drawn) [1GC, 4-(3-bromophenyl)-5-oxo-2,5-dihydrofuran-2-ylmethyl 3-chloropropionate]
29 | 2 to 4 µg/mL (≈ 6.08 to 12.2 µM) | 1 to 2 µg/mL (≈ 3.04 to 6.08 µM) | 1 to 2 µg/mL (≈ 3.04 to 6.08 µM) | O=C(CCCCl)OCC1C=C(c2cccc(Cl)c2)C(=O)O1 (stereo not drawn) [1HB, 4-(3-chlorophenyl)-5-oxo-2,5-dihydrofuran-2-ylmethyl 4-chlorobutyrate]
30 | 4 to 8 µg/mL (≈ 10.7 to 21.4 µM) | 1 to 2 µg/mL (≈ 2.68 to 5.35 µM) | 1 to 2 µg/mL (≈ 2.68 to 5.35 µM) | O=C(CCCCl)OCC1C=C(c2cccc(Br)c2)C(=O)O1 (stereo not drawn) [1HC, 4-(3-bromophenyl)-5-oxo-2,5-dihydrofuran-2-ylmethyl 4-chlorobutyrate]
